Measurements published in ChEMBL document CHEMBL1131542, “A potent dipeptide inhibitor of dipeptidyl peptidase IV” (Bioorg Med Chem Lett, 1998).
Square brackets hold non-standard residues; d marks the D form. Peptide text beside a SMILES is read from it. Tic = O=C(O)[C@@H]1Cc2ccccc2CN1

Target: Dipeptidyl peptidase 4 (Homo sapiens, UniProt P27487)
Experiment: Percent inhibition against Dipeptidyl peptidase IV (DPP IV) at a concentration of 1 uM

Chain of Dipeptidyl peptidase 4 (P27487 whole entry, looked up): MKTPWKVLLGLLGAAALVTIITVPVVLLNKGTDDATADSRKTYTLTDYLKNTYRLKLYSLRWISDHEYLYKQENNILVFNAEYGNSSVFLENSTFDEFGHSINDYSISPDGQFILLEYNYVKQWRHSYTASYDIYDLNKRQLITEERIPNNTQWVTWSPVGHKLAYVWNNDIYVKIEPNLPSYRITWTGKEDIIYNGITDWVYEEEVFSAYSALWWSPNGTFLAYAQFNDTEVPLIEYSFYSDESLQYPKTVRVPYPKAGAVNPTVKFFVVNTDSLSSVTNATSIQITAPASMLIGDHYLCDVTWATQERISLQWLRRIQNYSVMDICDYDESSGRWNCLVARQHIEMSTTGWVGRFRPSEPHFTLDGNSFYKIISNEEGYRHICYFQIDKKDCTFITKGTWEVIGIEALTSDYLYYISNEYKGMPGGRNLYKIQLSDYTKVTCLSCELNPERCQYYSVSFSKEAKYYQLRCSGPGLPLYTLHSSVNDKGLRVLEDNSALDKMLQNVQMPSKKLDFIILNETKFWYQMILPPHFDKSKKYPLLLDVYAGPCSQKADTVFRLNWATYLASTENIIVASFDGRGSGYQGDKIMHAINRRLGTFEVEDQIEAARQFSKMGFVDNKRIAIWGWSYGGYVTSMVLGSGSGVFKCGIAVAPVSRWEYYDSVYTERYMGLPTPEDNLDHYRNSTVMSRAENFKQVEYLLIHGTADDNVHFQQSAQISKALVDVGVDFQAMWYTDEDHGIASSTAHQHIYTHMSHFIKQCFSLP

Row | Structure (SMILES) | inhibition [%]
1 | CC[C@H](C)[C@H](NC(=O)[C@H](Cc1c[nH]cn1)NC(=O)CNC(=O)[C@H](CCC(=O)O)NC(=O)[C@H](CCC(N)=O)NC(=O)[C@H](CC(=O)O)NC(=O)[C@H](CC(N)=O)NC(=O)[C@H](CCCN=C(N)N)NC(=O)[C@H](C)NC(=O)[C@@H]1Cc2ccccc2CN1C(=O)[C@@H](N)CC(C)C)C(=O)N[C@@H](CC(C)C)C(=O)N[C@@H](CCCCN)C(=O)N[C@@H](CCSC)C(=O)N[C@@H](Cc1ccccc1)C(=O)N1CCC[C@H]1C(=O)N[C@@H](CO)C(=O)N[C@H](C(=O)N[C@@H](Cc1c[nH]c2ccccc12)C(=O)N[C@@H](Cc1ccc(O)cc1)C(=O)N[C@H](C(=O)O)C(C)C)[C@@H](C)O (H-L[Tic]ARNDQEGHILKMFPSTWYV-OH) | 7
2 | CC[C@H](C)[C@H](NC(=O)[C@H](Cc1c[nH]cn1)NC(=O)CNC(=O)[C@H](CCC(=O)O)NC(=O)[C@H](CCC(N)=O)NC(=O)[C@H](CC(=O)O)NC(=O)[C@H](CC(N)=O)NC(=O)[C@H](CCCN=C(N)N)NC(=O)[C@H](C)NC(=O)[C@@H]1Cc2ccccc2CN1C(=O)[C@@H](N)CCSC)C(=O)N[C@@H](CC(C)C)C(=O)N[C@@H](CCCCN)C(=O)N[C@@H](CCSC)C(=O)N[C@@H](Cc1ccccc1)C(=O)N1CCC[C@H]1C(=O)N[C@@H](CO)C(=O)N[C@H](C(=O)N[C@@H](Cc1c[nH]c2ccccc12)C(=O)N[C@@H](Cc1ccc(O)cc1)C(=O)N[C@H](C(=O)O)C(C)C)[C@@H](C)O (H-M[Tic]ARNDQEGHILKMFPSTWYV-OH) | 6
3 | CC[C@H](C)[C@H](NC(=O)[C@H](Cc1c[nH]cn1)NC(=O)CNC(=O)[C@H](CCC(=O)O)NC(=O)[C@H](CCC(N)=O)NC(=O)[C@H](CC(=O)O)NC(=O)[C@H](CC(N)=O)NC(=O)[C@H](CCCN=C(N)N)NC(=O)[C@H](C)NC(=O)[C@@H]1Cc2ccccc2CN1C(=O)[C@@H](N)CC(N)=O)C(=O)N[C@@H](CC(C)C)C(=O)N[C@@H](CCCCN)C(=O)N[C@@H](CCSC)C(=O)N[C@@H](Cc1ccccc1)C(=O)N1CCC[C@H]1C(=O)N[C@@H](CO)C(=O)N[C@H](C(=O)N[C@@H](Cc1c[nH]c2ccccc12)C(=O)N[C@@H](Cc1ccc(O)cc1)C(=O)N[C@H](C(=O)O)C(C)C)[C@@H](C)O (H-N[Tic]ARNDQEGHILKMFPSTWYV-OH) | 9
4 | CC[C@H](C)[C@H](NC(=O)[C@H](Cc1c[nH]cn1)NC(=O)CNC(=O)[C@H](CCC(=O)O)NC(=O)[C@H](CCC(N)=O)NC(=O)[C@H](CC(=O)O)NC(=O)[C@H](CC(N)=O)NC(=O)[C@H](CCCN=C(N)N)NC(=O)[C@H](C)NC(=O)[C@@H]1Cc2ccccc2CN1C(=O)[C@@H](N)CCC(N)=O)C(=O)N[C@@H](CC(C)C)C(=O)N[C@@H](CCCCN)C(=O)N[C@@H](CCSC)C(=O)N[C@@H](Cc1ccccc1)C(=O)N1CCC[C@H]1C(=O)N[C@@H](CO)C(=O)N[C@H](C(=O)N[C@@H](Cc1c[nH]c2ccccc12)C(=O)N[C@@H](Cc1ccc(O)cc1)C(=O)N[C@H](C(=O)O)C(C)C)[C@@H](C)O (H-Q[Tic]ARNDQEGHILKMFPSTWYV-OH) | 4
5 | CC[C@H](C)[C@H](NC(=O)[C@H](Cc1c[nH]cn1)NC(=O)CNC(=O)[C@H](CCC(=O)O)NC(=O)[C@H](CCC(N)=O)NC(=O)[C@H](CC(=O)O)NC(=O)[C@H](CC(N)=O)NC(=O)[C@H](CCCN=C(N)N)NC(=O)[C@H](C)NC(=O)[C@@H]1Cc2ccccc2CN1C(=O)[C@@H](N)CCCN=C(N)N)C(=O)N[C@@H](CC(C)C)C(=O)N[C@@H](CCCCN)C(=O)N[C@@H](CCSC)C(=O)N[C@@H](Cc1ccccc1)C(=O)N1CCC[C@H]1C(=O)N[C@@H](CO)C(=O)N[C@H](C(=O)N[C@@H](Cc1c[nH]c2ccccc12)C(=O)N[C@@H](Cc1ccc(O)cc1)C(=O)N[C@H](C(=O)O)C(C)C)[C@@H](C)O (H-R[Tic]ARNDQEGHILKMFPSTWYV-OH) | 10
6 | CC[C@H](C)[C@H](NC(=O)[C@H](Cc1c[nH]cn1)NC(=O)CNC(=O)[C@H](CCC(=O)O)NC(=O)[C@H](CCC(N)=O)NC(=O)[C@H](CC(=O)O)NC(=O)[C@H](CC(N)=O)NC(=O)[C@H](CCCN=C(N)N)NC(=O)[C@H](C)NC(=O)[C@@H]1Cc2ccccc2CN1C(=O)[C@@H](N)[C@@H](C)O)C(=O)N[C@@H](CC(C)C)C(=O)N[C@@H](CCCCN)C(=O)N[C@@H](CCSC)C(=O)N[C@@H](Cc1ccccc1)C(=O)N1CCC[C@H]1C(=O)N[C@@H](CO)C(=O)N[C@H](C(=O)N[C@@H](Cc1c[nH]c2ccccc12)C(=O)N[C@@H](Cc1ccc(O)cc1)C(=O)N[C@H](C(=O)O)C(C)C)[C@@H](C)O (H-T[Tic]ARNDQEGHILKMFPSTWYV-OH) | 17
7 | CC[C@H](C)[C@H](NC(=O)[C@H](Cc1c[nH]cn1)NC(=O)CNC(=O)[C@H](CCC(=O)O)NC(=O)[C@H](CCC(N)=O)NC(=O)[C@H](CC(=O)O)NC(=O)[C@H](CC(N)=O)NC(=O)[C@H](CCCN=C(N)N)NC(=O)[C@H](C)NC(=O)[C@@H]1Cc2ccccc2CN1C(=O)[C@@H](N)C(C)C)C(=O)N[C@@H](CC(C)C)C(=O)N[C@@H](CCCCN)C(=O)N[C@@H](CCSC)C(=O)N[C@@H](Cc1ccccc1)C(=O)N1CCC[C@H]1C(=O)N[C@@H](CO)C(=O)N[C@H](C(=O)N[C@@H](Cc1c[nH]c2ccccc12)C(=O)N[C@@H](Cc1ccc(O)cc1)C(=O)N[C@H](C(=O)O)C(C)C)[C@@H](C)O (H-V[Tic]ARNDQEGHILKMFPSTWYV-OH) | 3

Now from value to molecule:

Row | inhibition [%] | Structure (SMILES)
8 | 6 | CC[C@H](C)[C@H](N)C(=O)N1Cc2ccccc2C[C@H]1C(=O)N[C@@H](C)C(=O)N[C@@H](CCCN=C(N)N)C(=O)N[C@@H](CC(N)=O)C(=O)N[C@@H](CC(=O)O)C(=O)N[C@@H](CCC(N)=O)C(=O)N[C@@H](CCC(=O)O)C(=O)NCC(=O)N[C@@H](Cc1c[nH]cn1)C(=O)N[C@H](C(=O)N[C@@H](CC(C)C)C(=O)N[C@@H](CCCCN)C(=O)N[C@@H](CCSC)C(=O)N[C@@H](Cc1ccccc1)C(=O)N1CCC[C@H]1C(=O)N[C@@H](CO)C(=O)N[C@H](C(=O)N[C@@H](Cc1c[nH]c2ccccc12)C(=O)N[C@@H](Cc1ccc(O)cc1)C(=O)N[C@H](C(=O)O)C(C)C)[C@@H](C)O)[C@@H](C)CC (H-I[Tic]ARNDQEGHILKMFPSTWYV-OH)
9 | 7 | CC[C@H](C)[C@H](NC(=O)[C@H](Cc1c[nH]cn1)NC(=O)CNC(=O)[C@H](CCC(=O)O)NC(=O)[C@H](CCC(N)=O)NC(=O)[C@H](CC(=O)O)NC(=O)[C@H](CC(N)=O)NC(=O)[C@H](CCCN=C(N)N)NC(=O)[C@H](C)NC(=O)[C@@H]1Cc2ccccc2CN1C(=O)[C@@H](N)CCCCN)C(=O)N[C@@H](CC(C)C)C(=O)N[C@@H](CCCCN)C(=O)N[C@@H](CCSC)C(=O)N[C@@H](Cc1ccccc1)C(=O)N1CCC[C@H]1C(=O)N[C@@H](CO)C(=O)N[C@H](C(=O)N[C@@H](Cc1c[nH]c2ccccc12)C(=O)N[C@@H](Cc1ccc(O)cc1)C(=O)N[C@H](C(=O)O)C(C)C)[C@@H](C)O (H-K[Tic]ARNDQEGHILKMFPSTWYV-OH)
10 | 10 | CC[C@H](C)[C@H](NC(=O)[C@H](Cc1c[nH]cn1)NC(=O)CNC(=O)[C@H](CCC(=O)O)NC(=O)[C@H](CCC(N)=O)NC(=O)[C@H](CC(=O)O)NC(=O)[C@H](CC(N)=O)NC(=O)[C@H](CCCN=C(N)N)NC(=O)[C@H](C)NC(=O)[C@@H]1Cc2ccccc2CN1C(=O)[C@@H](N)CO)C(=O)N[C@@H](CC(C)C)C(=O)N[C@@H](CCCCN)C(=O)N[C@@H](CCSC)C(=O)N[C@@H](Cc1ccccc1)C(=O)N1CCC[C@H]1C(=O)N[C@@H](CO)C(=O)N[C@H](C(=O)N[C@@H](Cc1c[nH]c2ccccc12)C(=O)N[C@@H](Cc1ccc(O)cc1)C(=O)N[C@H](C(=O)O)C(C)C)[C@@H](C)O (H-S[Tic]ARNDQEGHILKMFPSTWYV-OH)
